Data reported in article PMC6934184, “Selective DNA-PKcs inhibition extends the therapeutic index of localized radiotherapy and chemotherapy” (The Journal of Clinical Investigation, 2019).

Target: T1, DYRK2 (Homo sapiens, UniProt Q92630)
T1 construct: purchased Thermo Fisher Scientific (Life Technologies) SelectScreen
Experiment: SelectScreen LanthaScreen
Format: binding
Conditions: read-out: % displacement
How it was run: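 Percent values come from Thermo SelectScreen profiling of NU5455, combining activity and binding assays. CSF1R was run in Z'LYTE format at Km app ATP, and CAMK1 in Adapta format with ATP listed at 10.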

T1 sequence (Q92630 whole entry): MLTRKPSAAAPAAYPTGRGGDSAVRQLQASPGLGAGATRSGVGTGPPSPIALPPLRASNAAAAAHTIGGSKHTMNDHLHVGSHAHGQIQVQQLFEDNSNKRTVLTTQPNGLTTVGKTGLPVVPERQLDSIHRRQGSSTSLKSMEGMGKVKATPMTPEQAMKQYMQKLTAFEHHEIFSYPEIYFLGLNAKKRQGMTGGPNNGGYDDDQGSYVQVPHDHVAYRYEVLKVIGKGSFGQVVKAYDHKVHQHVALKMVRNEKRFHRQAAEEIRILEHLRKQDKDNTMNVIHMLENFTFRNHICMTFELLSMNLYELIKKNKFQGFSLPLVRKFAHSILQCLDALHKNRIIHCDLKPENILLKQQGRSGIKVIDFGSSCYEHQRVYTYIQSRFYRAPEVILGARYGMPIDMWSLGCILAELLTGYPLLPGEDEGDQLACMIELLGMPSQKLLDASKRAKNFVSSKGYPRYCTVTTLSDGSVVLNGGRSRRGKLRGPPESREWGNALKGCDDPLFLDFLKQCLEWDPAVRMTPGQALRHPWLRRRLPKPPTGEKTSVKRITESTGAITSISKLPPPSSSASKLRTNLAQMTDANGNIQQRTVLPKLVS

CN(C(=O)CN1CCOCC1)c1ccc2sc3c(-c4cccc5c(=O)cc(N6CC7CCC(C6)O7)oc45)cccc3c2c1 [NU5455]
inhibition at 1 µM: 5%
